Experimental data published in US7253198B2, “Hydroxyethylamine derivatives for the treatment of Alzheimer's disease” (Glaxo Group Limited, priority 2002, dated 2007).

target: Asp-2 (Homo sapiens, UniProt P56817); test: Asp-2 Inhibitory Assay; format: biochemical; conditions: Assay (I), FAM-SEVNLDAEFK-TAMRA substrate, pH 4.5; read-out: inhibition (Asp-2)
Procedure: (I) Asp-2 Inhibitory Assay
This is prepared by diluting 2 ml of a 2 mM DMSO solution of the substrate into 400 ml of buffer (100 mM Sodium acetate pH=4.5, 1 l Milli-Q water, 0.06% Triton X-100 (0.5 ml/l), pH adjusted to 4.5 using glacial acetic acid). […] This is prepared by diluting 16 ml of a 500 nM enzyme solution into 384 ml of buffer (prepared as above).
Blank wells (enzyme solution replaced by buffer) are included as controls on each plate.

Asp-2, sequence (P56817 46-501): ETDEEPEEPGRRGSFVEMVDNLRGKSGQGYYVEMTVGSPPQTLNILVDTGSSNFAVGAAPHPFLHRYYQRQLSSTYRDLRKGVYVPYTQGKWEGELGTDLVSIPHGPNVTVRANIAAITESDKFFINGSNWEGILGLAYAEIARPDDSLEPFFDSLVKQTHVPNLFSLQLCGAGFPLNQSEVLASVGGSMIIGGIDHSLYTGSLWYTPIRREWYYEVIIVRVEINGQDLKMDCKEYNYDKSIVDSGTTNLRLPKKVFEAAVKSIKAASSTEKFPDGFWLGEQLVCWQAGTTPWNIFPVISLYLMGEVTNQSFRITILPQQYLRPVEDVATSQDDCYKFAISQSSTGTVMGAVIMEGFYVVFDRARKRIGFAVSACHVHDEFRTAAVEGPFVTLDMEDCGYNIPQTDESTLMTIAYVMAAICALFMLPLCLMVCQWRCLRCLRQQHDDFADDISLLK

Structure (SMILES)	IC50
C[C@H](NC[C@@H](O)[C@H](Cc1ccccc1)NC(=O)c1cc(C2CCCC2)cc(N2CCCC2=O)c1)C(=O)NC1CCCCC1 [Example E12, N-[(1S,2R)-1-Benzyl-3-((S)-1-cyclohexylcarbamoylethylamino)-2-hydroxypropyl]-3-cyclopentyl-5-(2-oxopyrrolidin-1-yl)benzamide]	1 to 50 nM
O=C(NC(Cc1ccccc1)C(O)CNCc1cccc(C(F)(F)F)c1)c1cc(C2CCCC2)cc(N2CCCC2=O)c1 (centres unmarked) [Example E22, N-[1-Benzyl-2-hydroxy-3-(3-trifluoromethylbenzylamino)propyl]-3-cyclopentyl-5-(2-oxopyrrolidin-1-yl)benzamide]	1 to 50 nM
CCCCCNc1cc(C(=O)N[C@@H](Cc2ccccc2)[C@H](O)CN[C@@H](C)C(=O)NC2CCCCC2)cc(N2CCCC2=O)c1 [Example E54, N-[(1S,2R)-1-Benzyl-3-((S)-1-cyclohexylcarbamoylethylamino)-2-hydroxypropyl]-3-(2-oxopyrrolidin-1-yl)-5-pentylaminobenzamide]	1 to 50 nM
CCC(CC)Nc1cc(C(=O)N[C@@H](Cc2ccccc2)[C@H](O)CN[C@@H](C)C(=O)NC2CCCCC2)cc(N2CCCC2=O)c1 [Example E55, N-[(1S,2R)-1-Benzyl-3-((S)-1-cyclohexylcarbamoylethylamino)-2-hydroxypropyl]-3-(1-ethylpropylamino)-5-(2-oxopyrrolidin-1-yl)benzamide]	1 to 50 nM
CCCCNc1cc(C(=O)N[C@@H](Cc2ccccc2)[C@H](O)CN[C@@H](C)C(=O)NC2CCCCC2)cc(N2CCCC2=O)c1 [Example E56, N-[(1S,2R)-1-Benzyl-3-((S)-1-cyclohexylcarbamoylethylamino)-2-hydroxypropyl]-3-butylamino-5-(2-oxopyrrolidin-1-yl)benzamide]	1 to 50 nM
CC(C)CCCC(C)NC[C@@H](O)[C@H](Cc1ccccc1)NC(=O)c1cc(NC(C)C)cc(N2CCCC2=O)c1 (stereo partly drawn) [Example E60, N-[(1S,2R)-1-Benzyl-3-(1,5-dimethylhexylamino)-2-hydroxypropyl]-3-isopropylamino-5-(2-oxopyrrolidin-1-yl)benzamide]	1 to 50 nM
CCCC[C@H](NC[C@@H](O)[C@H](Cc1ccccc1)NC(=O)c1cc(OC(C)C)cc(N2CCCC2=O)c1)C(=O)NCC(C)C [Example E179, N-[(1S,2R)-1-Benzyl-2-hydroxy-3-((S)-1-isobutylcarbamoyl-pentylamino)-propyl]-3-isopropoxy-5-(2-oxopyrrolidin-1-yl)benzamide]	1 to 50 nM

same assay, conditions: inhibition (Asp-2), Assay (I), FAM-SEVNLDAEFK-TAMRA substrate, pH 4.5

Structure (SMILES)	IC50
CCNc1cc(C(=O)N[C@@H](Cc2ccccc2)[C@H](O)CNCc2cccc(OC(F)(F)F)c2)cc(N2CCCC2=O)c1 [Example E86, N-[(1S,2R)-1-Benzyl-2-hydroxy-3-(3-trifluoromethoxybenzylamino)-propyl]-3-ethylamino-5-(2-oxopyrrolidin-1-yl)benzamide]	1 to 50 nM
